Test results as given in PMC7170901, “Design and efficient synthesis of pyrazoline and isoxazole bridged indole C-glycoside hybrids as potential anticancer agents” (Scientific Reports, 2020).

Experiments:
Format in all cases: cell-based
[1] = test system: MDA-MB-231 (human breast cancer) cell line; assay: MTT cell viability assay in MDA-MB-231 cells; conditions: for viability at 10 µM / viability at 25 µM / viability at 50 µM: MDA-MB-231, 72 h; for viability at 10 µM / viability at 25 µM / viability at 50 µM / Cell Viability (%) ± SD: 72 h, MTT
Experimental: IC50 values were determined by plotting values of percent cell viability against concentration of each of these compounds. […] The experiments were performed in triplicates, n = 3 and ± SE value was calculated for each data point.
The human breast cancer cell line MDA-MB-231 were cultured in Dulbecco’s Modified Eagle’s Medium (DMEM) (Gibco, St. Louis, USA) supplemented with 10% heat inactivated FBS (Fetal Bovine Serum, Gibco, USA) and 1% penicillin-streptomycin (Gibco Canada) in humidified CO2 incubator at 37 °C. The cells were maintained as a monolayer in 100 mm culture plate. The cells used for each experiment were of less than 8 passage number. Sub culturing of cells was performed every third day, followed by trypsin EDTA treatment.
Cell viability assay was performed as per standard protocols. […] Ltd, India). In brief, this is a homogeneous, colorimetric method for determining the number of viable cells in proliferation, cytotoxicity or chemosensitivity assays. MTT is bio reduced by cells into a formazan product that is soluble in the tissue culture medium. […] The absorbance of the formazan product at 595 nm was measured directly from 96-well assay plates without additional processing using a multimode plate reader (Bio-Rad) (iMark, India), as absorbance is directly proportional to the number of viable cells in culture. The percentage of viable cells in each group is determined with respect to the untreated control cells.

[2] = test system: MCF-7 breast cancer cells; assay: MTT cell viability assay in MCF-7 cells; conditions: Homo sapiens, MCF7, read-out: Cell Viability (%) ± SD
MDA-MB-453 cells = assay: MTT cell viability assay in MDA-MB-453 cells; conditions: Homo sapiens, read-out: Cell Viability (%) ± SD
Excerpt: (§1) MDA-MB-231 represents a specific subtype, known as the triple negative breast cancer (TNBC). […] We also included normal mammary epithelial MCF-10A cells in our experiments to confirm if the growth-inhibitory activities of the selected compounds are truly cancer cell-specific. […] Furthermore, none of these compounds did have any growth inhibitory activity against normal breast epithelial cell (MCF-10A). The IC50 values for these compounds against MDA-MB-231 cells (Fig. 2) are also included in Table 4 for comparison. Cell viability assay was performed as per standard protocols. After 72 h of cell incubation in the presence or absence of each compound, cell viability was evaluated by using MTT ((3-(4,5-dimethylthiazol-2-yl)-2,5-diphenyltetrazolium bromide)) (Himedia Pvt. Ltd, India). In brief, this is a homogeneous, colorimetric method for determining the number of viable cells in proliferation, cytotoxicity or chemosensitivity assays. MTT is bio reduced by cells into a formazan product that is […]. After 72 h of compound treatment, the medium was removed and 100 μL of MTT (0.5 mg ml^−1 in media) was added to the cells and kept in the dark for 3 h at 37 °C in the CO2 incubator and the formazan formed was dissolved in 100 μL DMSO (Dimethyl Sulfoxide). The absorbance of the formazan product at 595 nm was measured directly from 96-well assay plates without additional processing using a multimode plate reader (Bio-Rad) (iMark, India), as absorbance is directly proportional to the number of viable cells in culture. The percentage of viable cells in each group is determined with respect to the untreated control cells.

[3] = MTT cell viability assay in normal MCF-10A cells; conditions: human, MCF-10A normal mammary epithelial cells, read-out: Cell Viability (%) ± SD
Excerpt: as §1

[4] = Homo sapiens, MDA-MB-231, 10 µM, read-out: Cell Viability (%) ± SD
[5] = Homo sapiens, MDA-MB-231, 25 µM, read-out: Cell Viability (%) ± SD
[6] = Homo sapiens, MDA-MB-231, 50 µM, read-out: Cell Viability (%) ± SD

Molecule	viability at 10 µM [1, 4]	viability at 25 µM [1, 5]	viability at 50 µM [1, 6]	also measured
O=C(/C=C/c1c[nH]c2ccc([N+](=O)[O-])cc12)C[C@@H]1O[C@H](CO)[C@H](O)[C@H](O)[C@H]1O [Compound 14, (E)-4-(5-nitro-1H-indol-3-yl)-1-((2S,3R,4R,5R,6R)-3,4,5-trihydroxy-6-(hydroxymethyl)tetrahydro-2H-pyran-2-yl)but-3-en-2-one]	73.6 ± 11.8%	59 ± 12.5%	60.6 ± 5.61%	viability at 1 µM ([2]; MCF-7, 1 µM): 100 ± 4.5%; viability at 10 µM ([2]; MCF-7, 10 µM): 69.8 ± 1.8%; viability at 25 µM ([2]; MCF-7, 25 µM): 66.8 ± 3%; viability at 1 µM (MDA-MB-453 cells; MDA-MB-453, 1 µM): 80.8 ± 3.2%; viability at 10 µM (MDA-MB-453 cells; MDA-MB-453, 10 µM): 82.2 ± 11.5%; viability at 25 µM (MDA-MB-453 cells; MDA-MB-453, 25 µM): 65.3 ± 5.8%; viability at 72 h, 25 µM ([3]; 25 µM): 86.8 ± 2.8%; viability at 72 h, 50 µM ([3]; 50 µM): 84.6 ± 0.7%; viability at 72 h, 100 µM ([3]; 100 µM): 80 ± 1.5%
OC[C@H]1O[C@@H](Cc2cc(-c3c[nH]c4ccc(Cl)cc34)on2)[C@H](O)[C@@H](O)[C@@H]1O [Compound 36, (2 S,3 R,4 R,5 S,6 R)-2-((5-(5-chloro-1H-indol-3-yl)isoxazol-3-yl)methyl)-6-(hydroxymethyl) tetrahydro-2H-pyran-3,4,5-triol]	97.8 ± 11.6%	96.8 ± 11.6%	99.3 ± 4.28%	
O=[N+]([O-])c1ccc2[nH]cc(-c3cc(C[C@@H]4O[C@H](CO)[C@H](O)[C@H](O)[C@H]4O)no3)c2c1 [Compound 38, (2 R,3 R,4 R,5 R,6 S)-2-(hydroxymethyl)-6-((5-(5-nitro-1H-indol-3-yl)isoxazol-3-yl)methyl) tetrahydro-2H-pyran-3,4,5-triol]	99.1 ± 5.63%	94.5 ± 3.67%	94.9 ± 4.49%	
OC[C@H]1O[C@@H](Cc2cc(-c3c[nH]c4ccc(Br)cc34)on2)[C@H](O)[C@@H](O)[C@H]1O [Compound 39, (2 S,3 R,4 R,5 R,6 R)-2-((5-(5-bromo-1H-indol-3-yl)isoxazol-3-yl)methyl)-6-(hydroxymethyl) tetrahydro-2H-pyran-3,4,5-triol]	120 ± 17.6%	89.4 ± 5.32%	90.3 ± 2.88%	
OC[C@H]1O[C@@H](Cc2cc(-c3c[nH]c4ccc(Cl)cc34)on2)[C@H](O)[C@@H](O)[C@H]1O [Compound 40, (2 S,3 R,4 R,5 R,6 R)-2-((5-(5-chloro-1H-indol-3-yl)isoxazol-3-yl)methyl)-6-(hydroxymethyl) tetrahydro-2H-pyran-3,4,5-triol]	93.7 ± 2.68%	96 ± 1.81%	87.9 ± 4.71%	
OC[C@H]1O[C@@H](Cc2cc(-c3c[nH]c4ccccc34)on2)[C@@H](O)[C@@H](O)[C@@H]1O [Compound 41, (2 S,3 S,4 R,5 S,6 R)-2-((5-(1H-indol-3-yl)isoxazol-3-yl)methyl)-6-(hydroxymethyl) tetrahydro-2H-pyran-3,4,5-triol]	89.2 ± 3.7%	81.2 ± 5.17%	74 ± 17.6%	
O=[N+]([O-])c1ccc2[nH]cc(-c3cc(C[C@@H]4O[C@H](CO)[C@@H](O)[C@H](O)[C@@H]4O)no3)c2c1 [Compound 42, (2 R,3 S,4 R,5 S,6 S)-2-(hydroxymethyl)-6-((5-(5-nitro-1H-indol-3-yl)isoxazol-3-yl)methyl) tetrahydro-2H-pyran-3,4,5-triol]	92.6 ± 11.5%	93.4 ± 15.7%	95.2 ± 13.6%	
OC[C@H]1O[C@@H](Cc2cc(-c3c[nH]c4ccc(Br)cc34)on2)[C@@H](O)[C@@H](O)[C@@H]1O [Compound 43, (2 S,3 S,4 R,5 S,6 R)-2-((5-(5-bromo-1H-indol-3-yl)isoxazol-3-yl)methyl)-6-(hydroxymethyl) tetrahydro-2H-pyran-3,4,5-triol]	96.6 ± 3.98%	85.2 ± 2.93%	95.7 ± 3.26%	
OC[C@H]1O[C@@H](Cc2cc(-c3c[nH]c4ccc(Cl)cc34)on2)[C@@H](O)[C@@H](O)[C@@H]1O [Compound 44, (2 S,3 S,4 R,5 S,6 R)-2-((5-(5-chloro-1H-indol-3-yl)isoxazol-3-yl)methyl)-6-(hydroxymethyl) tetrahydro-2H-pyran-3,4,5-triol]	83.9 ± 4.08%	82.9 ± 5.28%	81.7 ± 3.45%	
CC1=CC(=O)c2ccccc2C1=O [Menadione, menadione, reference compound]				viability at 20 µM ([1]; Homo sapiens, MDA-MB-231, MDA-MB-231, positive control at 20 µM, read-out: Cell Viability (%) ± SD): 20.8 ± 8.7%
COCCn1c2c([n+](Cc3cnccn3)c1C)C(=O)c1ccccc1C2=O [YM155, reference compound]				viability at 0.02 µM ([1]; Homo sapiens, MDA-MB-231, MDA-MB-231, positive control at 20 nM, read-out: Cell Viability (%) ± SD): 27.4 ± 4.93%; viability at 0.02 µM ([2]; MCF-7, positive control at 20 nM): 37.2 ± 1.7%; viability at 0.02 µM (MDA-MB-453 cells; MDA-MB-453, positive control at 20 nM): 33.2 ± 1.5%; viability at 72 h, 0.02 µM ([3]; positive control at 20 nM): 48.2 ± 1.6%
(E)-4-(1H-indol-3-yl)-1-((2S,3S,4R,5S,6R)-3,4,5-trihydroxy-6-(hydroxymethyl) tetrahydro-2H-pyran-2-yl) but-3-en-2-one [Compound 19]				Cell Viability (%) ± SD ([1]; MDA-MB-231, 10 µM): 102.51 ± 10.39%; Cell Viability (%) ± SD ([1]; MDA-MB-231, 25 µM): 89.20 ± 28.63%; Cell Viability (%) ± SD ([1]; MDA-MB-231, 50 µM): 71.48 ± 6.24%
